For orientation: IC50 means the midpoint of a concentration-inhibition curve.

Data set [1] concerns SUNE1 (human nasopharyngeal carcinoma, cisplatin sensitive). Nature of the data set: MTT cytotoxicity, SUNE1. Particulars: 72 h. It counts as cell-based. As for the experimental part:
(§1) The cytotoxicities of the gold(III) compounds toward several human cancer cell lines including nasopharyngeal carcinoma (SUNE1, and its cisplatin variant CNE1), hepatocellular carcinoma (HepG2), and cervical epitheloid carcinoma (HeLa) were determined using a well-established MTT assay.

In data set [2] the test system is CNE1 (human nasopharyngeal carcinoma, cisplatin resistance). Nature of the data set: MTT cytotoxicity, CNE1. The format is cell-based. As to conditions: 72 h. As for the experimental part:
as §1

In data set [3] the test system is HeLa (human cervical epithelioid carcinoma). Nature of the data set: MTT cytotoxicity, HeLa. The format is cell-based. Particulars: 72 h. Here is the method:
as §1

Data set [4] has as its system HepG2 (human hepatocellular carcinoma). Nature of the data set: MTT cytotoxicity, HepG2. The format is cell-based. As to conditions: 72 h. Here is the method: as §1
The nature of data set [5]: Cyclic voltammetry in DMF. The format is physicochemical. As to conditions: comparison value. The source says:
The electrochemical properties of the gold(III) compounds in DMF were studied by cyclic voltammetry. As compared to KAuCl4 [E°gold(III)→gold(I)=−0.4 V], the substantially more cathodic potentials of −1.43 to −1.83 V vs Cp2Fe^+/0 required for the gold(III) reduction in all the gold(III) compounds is consistent with stabilization of gold(III) by the dianionic CNC ligand.

The test system of data set [6] is several human cancer cell lines. Nature of the data set: Cytotoxic activities against several cancer cell lines (MTT). It counts as cell-based. As for the experimental part:
as §1
A number of structurally distinct gold(III)-phosphino compounds (3a-g) were synthesized and assayed for cytotoxic activities against several cancer cell lines (see Table 1). […] Whereas, shortening (n=1 or 2) or lengthening (n=4, 5 or 6) the hydrocarbon linker reduced the cytotoxicity, with IC50 values increasing by at least an order of magnitude.

The test system of another data set is 100-base pair DNA ladder. Nature of the data set: Gel mobility shift assay (DNA intercalation). It counts as binding. As to conditions: 1.5% agarose gel, DNA 50 μM bp-1. As for the experimental part: A gel mobility shift assay was employed to determine the intercalating property 3d [E. C. Long, J. K. Barton, Acc. Chem. Res. 1990, 23, 271] to evaluate the effect 3d, had upon the DNA binding affinities. A 100-base pair DNA ladder treated with 3d, or ethidium bromide (EB, DNA intercalator) as well as a control were resolved by agarose gel electrophoresis. Briefly, gel electrophoresis of 100-bp DNA ladder on a 1.5% (w/v) agarose gel was performed showing the mobility of DNA (50 μM bp-1) in the absence or presence of ethidium bromide (EB), or compound 3d. […] The bound DNA would have lower mobility compared to that of the free DNA.

A short description of data set [7]: Solution stability (UV-vis, NMR). The format is physicochemical. As to conditions: 24 h.
The next data set has as its system SUNE1 cells. Nature of the data set: Cell cycle analysis by flow cytometry (propidium iodide). It counts as cell-based, human. As to conditions: 24- or 48-h incubation. Here is the method:
To find out whether cellular DNA is a major target of the gold(III) compounds, we studied the cell cycle profiles of 3d-treated cancer cells. Cell cycle analysis was performed by assessing the DNA content of cells stained with propidium iodide using flow cytometry. This enables quantification of the total cellular populations in the different phases of the cell cycle (G0/G1, S and G2/M). […] Compound 3d appears to affect its cytotoxicity via some alternative mechanistic pathways.
Background: In flow cytometry, cells or beads pass a laser one at a time.

The test system of a further data set is cancers. Nature of the data set: Potency against cancers compared with cis-platin.
Another data set concerns nude mice. Nature of the data set: In vivo toxicity studies in nude mice.

Each structure is given as a SMILES string.

Regarding `c1ccc([P+](c2ccccc2)(c2ccccc2)[Au-]23[c]4ccccc4-c4cccc([n+]42)-c2cccc[c]23)cc1` [3a], the half-inhibitory concentration (IC50) in data set [1] worked out at 17000 ± 2000 nM. Besides, in data set [2], the IC50 was 11000 ± 2000 nM and the “IC50 ratio (CNE1/SUNE1), resistance factor” value (from here on “IC50 ratio (CNE1/SUNE1)”) was determined as 0.65.

`O=S(=O)([O-])C(F)(F)F.O=S(=O)([O-])C(F)(F)F.c1ccc([P+](CCCC[P+](c2ccccc2)(c2ccccc2)[Au-]23[c]4ccccc4-c4cccc([n+]42)-c2cccc[c]23)(c2ccccc2)[Au-]23[c]4ccccc4-c4cccc([n+]42)-c2cccc[c]23)cc1` [3e, [Au2(CNC)2(μ-dppb)](CF3SO3)2]: the half-inhibitory concentration (IC50) in data set [3] was 2400 ± 200 nM; in data set [1], 1500 ± 200 nM; in [2], 2200 ± 300 nM. Moreover, the “IC50 ratio (CNE1/SUNE1)” value in data set [2] was 1.5.

`O=S(=O)([O-])C(F)(F)F.O=S(=O)([O-])C(F)(F)F.c1ccc([P+](CCCCC[P+](c2ccccc2)(c2ccccc2)[Au-]23[c]4ccccc4-c4cccc([n+]42)-c2cccc[c]23)(c2ccccc2)[Au-]23[c]4ccccc4-c4cccc([n+]42)-c2cccc[c]23)cc1` [3f, [Au2(CNC)2(μ-dpppe)](CF3SO3)2]: the values for the IC50 in data set [3], in [1] and in data set [2] were 1500 ± 300 nM, 1600 ± 300 nM and 2500 ± 300 nM, respectively. In data set [2], the “IC50 ratio (CNE1/SUNE1)” value amounted to 1.6.

With `O=S(=O)([O-])C(F)(F)F.O=S(=O)([O-])C(F)(F)F.c1ccc([P+](CCCCCC[P+](c2ccccc2)(c2ccccc2)[Au-]23[c]4ccccc4-c4cccc([n+]42)-c2cccc[c]23)(c2ccccc2)[Au-]23[c]4ccccc4-c4cccc([n+]42)-c2cccc[c]23)cc1` [3g, [Au2(CNC)2(μ-dpph)](CF3SO3)2], the results for the IC50 in data set [3], in [1] and in data set [2] were 3200 ± 400 nM, 4300 ± 900 nM and 3200 ± 500 nM, respectively. For the same molecule, in [2], the “IC50 ratio (CNE1/SUNE1)” value came to 0.74.

For the molecule `O=S(=O)([O-])C(F)(F)F.O=S(=O)([O-])C(F)(F)F.O=S(=O)([O-])C(F)(F)F.c1ccc([P+](CC[P+](c2ccccc2)(c2ccccc2)[Au-]23[c]4ccccc4-c4cccc([n+]42)-c2cccc[c]23)(CC[P+](c2ccccc2)(c2ccccc2)[Au-]23[c]4ccccc4-c4cccc([n+]42)-c2cccc[c]23)[Au-]23[c]4ccccc4-c4cccc([n+]42)-c2cccc[c]23)cc1` [3h, [Au3(CNC)3(μ-dpep)](CF3SO3)3], the IC50 is 930 ± 90 nM in [3], 3800 ± 600 nM in data set [4], 260 ± 30 nM in data set [1] and 400 ± 50 nM in data set [2]. Moreover, in data set [2], the “IC50 ratio (CNE1/SUNE1)” value turned out to be 1.5.

For `[Cl][Au-]([Cl])([Cl])[Cl].[K+]` [KAuCl4], the “E° gold(III)→gold(I)” value in [5] is −0.4 V.

As to `[Cl-].[Cl][Pt-2]12[n+]3ccccc3-c3cccc([n+]31)-c1cccc[n+]12` [[Pt(terpy)Cl]Cl, reference compound], the 50% inhibitory concentration (IC50) in [3] worked out at 14000 ± 2000 nM; in [4], 23000 ± 3000 nM; in [1], 11000 ± 3000 nM; in [2], 13000 ± 2000 nM. Further, in data set [2], the “IC50 ratio (CNE1/SUNE1)” value worked out at 1.2.

For `N.N.[Cl][Pt][Cl]` [cisplatin, reference compound], the IC50 in [3] is 11000 ± 1000 nM; in data set [4], 1600 ± 200 nM; in [1] it was 1000 ± 100 nM; in [2], 3300 ± 500 nM. The “IC50 ratio (CNE1/SUNE1)” value in data set [2] is on record as 3.3.

Turning to `O=S(=O)([O-])C(F)(F)F.O=S(=O)([O-])C(F)(F)F.c1ccc([P+](CCC[P+](c2ccccc2)(c2ccccc2)[Au-]23[c]4ccccc4-c4cccc([n+]42)-c2cccc[c]23)(c2ccccc2)[Au-]23[c]4ccccc4-c4cccc([n+]42)-c2cccc[c]23)cc1` [compound 3d, [Au2(CNC)2(μ-dppp)](CF3SO3)2], the IC50 in data set [3] was determined as 43 nM; in [4], 210 ± 90 nM; in data set [1] it was 55 nM; in data set [2], 91 nM. Also, the “IC50 ratio (CNE1/SUNE1)” value in data set [2] came out at 1.7. Besides, the “Relative cytotoxicity among metal-free and metallated 1,2-bis(diphenylphosphino)Cn compounds” value in [6] was “most cytotoxic”. Moreover, the “DNA intercalation (tailing effect in gel)” value in the data set on 100-base pair DNA ladder is recorded as “does not bind to DNA by intercalation”. For the same molecule, the “Stability on standing in DMSO or TBS (UV-vis, 31P, 1H NMR)” value in data set [7] was “no UV-vis, ^31P or ^1H NMR spectral changes”. The “Effect on cell cycle” value with SUNE1 cells is reported as “did not significantly affect the cell cycle”. For the same molecule, the “potency against cancers relative to cis-platin” value with cancers is “about 200 times”. In addition, the “toxicity to nude mice” value with nude mice (concentrations 20-fold higher than the effective dose) is “non-toxic”. Moreover, the “DNA mutation upon usage” value in the data set with nude mice (mouse, in vivo) is listed as “does not cause DNA mutation”.

The record behind these values is patent publication US7632827B2, “Anti-cancer phosphine containing [AuIIIm(CNC)mL]n+ complexes and derivatives thereof and methods for treating cancer using such compositions” (The University of Hong Kong, priority 2006, dated 2009).
